# Results taken from patent US8889378B2, “Cytochrome C synthesis inhibitors” (priority 2006, dated 2014).
# Legend:
# [1] = test system: system I cytochrome c biogenesis; assay: Metalloprotoporphyrin IX addition, E. coli ΔccmΔhemA with pRGK333 (system I), pRGK332, pHPEX2 and 8 μM heme; assay type: cell-based; conditions: for effect on the level of detectable heme on c4:6×His (holocytochrome c4): metalloporphyrin 8, 12.5 or 25 μM with 8 μM heme
# Protocol: (§1) Overnight cultures of an E. coli Δccm strain (or E. coli ΔccmΔhemA) harboring either pRGK333 (system I) or pRGK348 (system II-chuA), pRGK332 (cytochrome c4:6×His), and pHPEX2 (Varnado and Goodwin, 2004) were diluted into fresh LB broth (containing the appropriate antibiotics and 8 μM hemin for the E. coli ΔccmΔhemA strain) and incubated with aeration at 37° C. until the OD600 was approximately 0.5. The mid-log phase cultures were divided into 5 mL aliquots to which IPTG (1 mM) and a metalloprotoporphyrin IX (Zn (II), Sn (IV), Co (III), or Mn (III); 0 μM to 25 μM) were added. Arabinose (0.2%) was added after one hour and incubation continued for an additional three hours. Cells were harvested and soluble protein was extracted using B-PER (Feissner et al., 2006). Cytochrome c4:6×His was purified from 300 μg of total protein and 20 μL was subjected to SDS-PAGE and transferred to nitrocellulose. Prior to heme stain and c4 immunoblot, the nitrocellulose blots were screened for fluorescence on an LAS-1000plus Luminescent Image Analyzer CCD camera system (Fujifilm; Tokyo, Japan).
# (§2) Heme stains were performed as described (Feissner et al., 2003) using SuperSignal Femto chemiluminescent substrate (Pierce). Heme stain quantitation used LOLITA II (Low Light Test Array; raytestUSA; Wilmington, N.C.) for standardization of light intensity detection on an LAS1000plus Luminescent Image Analyzer CCD camera system. For Western blotting, extracts were first separated by 12% or 15% SDS-PAGE and electroblotted onto Hybond-C nitrocellulose membranes (Amersham). Protein A peroxidase (Sigma-Aldrich) was used as the secondary label. Detection used the SuperSignal West Femto ECL detection system (Pierce). Chemiluminescence from heme stains and Western blots were detected using an LAS-1000plus Luminescent Image Analyzer CCD camera system (Fujifilm). Protein concentrations were determined using the BCA assay (Pierce) using BSA as a standard. The reduced (10 mM sodium dithionite) and oxidized (10 mM ammonia persulphate) absorption spectra were obtained as previously described (Goldman et al., 1996) using Ni^2+ affinity-purified holocytochrome c4:His. Protein concentrations were determined with the BCA assay kit (Pierce) using BSA as a standard.
# The chemical properties of iron may not be uniquely critical for its attachment to apocytochrome c during cytochromes c biogenesis. To test whether any of the cytochromes c biogenesis systems can incorporate other metal porphyrins, four metalloporphyrins were chosen to screen for incorporation into the into the CXXCH motif of a c-type cytochrome: ZnPPIX, SnPPIX, MnPPIX, and CoPPIX. These four metalloporphyrins were tested to determine whether heme can be replaced by other metalloporphyrins in the c-type cytochrome (c4:6×His) reporter. Cultures of E. coli ΔccmΔhemA containing pRGK333 (system I), pRGK332 (c4:6×His), and pHPEX2 were grown overnight in 300 μM ALA and subcultured into fresh LB medium containing 8 μM heme and grown to an OD600 of 0.5. IPTG and metalloporphyrin (8 μM, 12.5 μM, or 25 μM) were then added and growth continued for one hour. Arabinose was added to 0.2% to induce the synthesis of the c4:6×His and growth continued for three more hours before cells were harvested. […] As expected, heme was detected on c4:6×His when either 8 μM or 25 μM heme alone was added (FIG. 15 lanes 1 and 2, respectively).
# [2] = test system: system II cytochrome c biogenesis (H. pylori CcsBA); assay: Metalloprotoporphyrin IX addition, E. coli Δccm with pRGK348 (system II-chuA) and pRGK332; assay type: cell-based; conditions: for level of heme on c4:6×His: system II, up to 100 μM
# Protocol: as §1, with “The mid-log phase cultures were divided into 5 mL aliquots to which IPTG (1 mM) and a metalloprotoporphyrin IX (Zn (II), Sn (IV), Co (III), or Mn (III); 0 μM to 25 μM) were added.” left out
# as §2, with “Protein A peroxidase (Sigma-Aldrich) was used as the secondary label. Detection used the SuperSignal West Femto ECL detection system (Pierce).” left out, “The reduced (10 mM sodium dithionite) and oxidized (10 mM ammonia persulphate) absorption spectra were obtained as previously described (Goldman et al., 1996) using Ni^2+ affinity-purified holocytochrome c4:His.” left out
# ZnPPIX (and SnPPIX), when present with 8 μM heme, may compete with heme for ChuA-dependent transport into the cell. […] When E. coli Δccm with pRGK333 (system I), pRGK332, and pHPEX2 were treated with ZnPPIX, a decrease in holocytochrome c4:6×His was detected as the concentration of ZnPPIX was increased (FIG. 16A left panel, lanes 1-5). […]
# [3] = test system: system I cytochrome c biogenesis; assay: Metalloprotoporphyrin IX addition, E. coli Δccm with pRGK333 (system I), pRGK332 and pHPEX2; assay type: cell-based; conditions: for level of heme on c4:6×His: system I, up to 100 μM
# Protocol: as §1, with “The mid-log phase cultures were divided into 5 mL aliquots to which IPTG (1 mM) and a metalloprotoporphyrin IX (Zn (II), Sn (IV), Co (III), or Mn (III); 0 μM to 25 μM) were added.” left out
# as §2
# ZnPPIX (and SnPPIX), when present with 8 μM heme, may compete with heme for ChuA-dependent transport into the cell. Using an E. coli Δccm strain (RK103) that has endogenous heme production, it was tested whether ZnPPIX (and SnPPIX) caused a reduction in holocytochrome c4 levels detectable by heme stain. When E. coli Δccm with pRGK333 (system I), pRGK332, and pHPEX2 were treated with ZnPPIX, a decrease in holocytochrome c4:6×His was detected as the concentration of ZnPPIX was increased (FIG. 16A left panel, lanes 1-5).
# The three other metal protoporphyrins, SnPPIX, MnPPIX, and CoPPIX, were also tested in the E. coli Δccm background with system I or II. […]
# E. coli Δccm = assay: Growth of E. coli Δccm with pRGK333, pRGK332 and pHPEX2 in the presence of ZnPPIX; assay type: cell-based; conditions: 12.5 μM or 25 μM; compared to the same strain without ZnPPIX
# Protocol: FIG. 21. Growth of E. coli Dccm containing pRGK333, pRGK332, and HPEX2 in the presence of ZnPPIX. Overnight cultures of E. coli Dccm containing pRGK333 (system I), pRGK332 (cytochrome c4:6×His), and pHPEX2 were diluted into fresh LB broth containing the indicated ZnPPIX ([…]) concentrations for growth measurements.
# To rule out that ZnPPIX is not affecting some basic cellular processes, growth studies were performed with E. coli Δccm harboring pRGK333 (system I), pRGK332 (c4:6×His), and pHPEX2.
# [4] = test system: system I cytochrome c biogenesis; assay: NMPP-ZnPPIX combined inhibition, E. coli Δccm with pRGK333 (system I), pRGK332 and pHPEX2; assay type: cell-based
# Protocol: 100 mL cultures of E. coli Δccm containing pRGK333 (system I), pRGK332 (c4:6×His), and pHPEX2 (Varnado and Goodwin, 2004) were inoculated with 1% (v/v) from an overnight culture and grown with aeration at 37° C. to an OD600 of approximately 0.5. The mid-log phase cultures were divided into 5 mL aliquots to which IPTG (1 mM, to induce the synthesis of the system I proteins and the chuA gene) and NMPP (0 μM to 100 μM) were added. After one hour 0.2% arabinose was added (to induce the synthesis of the B. pertussis c4:6×His) and cultures were incubated an additional three hours. […]
# (§3) Heme stains were performed as described (Feissner et al., 2003) using SuperSignal Femto chemiluminescent substrate (Pierce). Heme stain quantitation used LOLITA II (Low Light Test Array; raytestUSA; Wilmington, N.C.) for standardization of light intensity detection on an LAS1000plus Luminescent Image Analyzer CCD camera system. […] Chemiluminescence from heme stains and Western blots were detected using an LAS-1000plus Luminescent Image Analyzer CCD camera system (Fujifilm). Protein concentrations were determined using the BCA assay (Pierce) using BSA as a standard. […] Protein concentrations were determined with the BCA assay kit (Pierce) using BSA as a standard. […]
# [5] = test system: system I cytochrome c biogenesis with arabinose-inducible CcmE; assay: NMPP inhibition, RK103 with pRGK345 (system I, ccmE deletion) and pRGK349 (arabinose-inducible c4:His and CcmE); assay type: cell-based, E. coli; conditions: 100 μM NMPP; compared with pRGK333 and constitutively produced CcmE
# Protocol: (§4) Five milliliter cultures of E. coli Δccm harboring either the pRGK333 or pRGK334 plasmid and pRGK332, or pRGK345 and pRGK349, were inoculated with 300 μl of overnight culture grown for 3 h to mid-exponential phase (A600=0.6). At this point, IPTG and NMPP (Frontier Scientific) were added to each culture; IPTG was added (1 mM) to induce the synthesis of system I (pRGK333), system II (pRGK334), or ΔccmE (pRGK345) while NMPP (10 mM stock in 50% DMSO) was added to a final concentration of 0-100 μM. After addition of IPTG and NMPP, cultures were grown an additional hour before induction of cytochrome c4:His (and ccmE from pRGK349) with 0.2% arabinose. Cells were grown for an additional 3 h and then harvested by centrifugation. […]
# as §3
# [6] = test system: system II cytochrome c biogenesis (H. pylori CcsBA); assay: NMPP inhibition of holocytochrome c4:His synthesis, RK103 with pRGK334 (system II) and pRGK332; assay type: cell-based, E. coli; conditions: all trials; heme stain
# Protocol: as §4, §3
molecule,measurement,setting,value
"C=Cc1c(C)c2cc3[nH]c(cc4nc(cc5nc(cc1[nH]2)C(C)=C5CCC(=O)[O-])C(CCC(=O)[O-])=C4C)c(C)c3C=C.[Co+2] [CoPPIX, cobalt (III) protoporphyrin IX]",effect on the level of detectable heme on c4:6×His (holocytochrome c4),[1],neither CoPPIX nor MnPPIX had any affect
same,level of heme on c4:6×His,[2],no decrease
same,level of heme on c4:6×His,[3],no decrease
"C=CC1=C(C)c2cc3[n-]c(cc4[n-]c(cc5nc(cc1n2)C(C)=C5C=C)c(C)c4CCC(=O)[O-])c(CCC(=O)[O-])c3C.[H+].[H+].[Mn+2] [MnPPIX, manganese (III) protoporphyrin IX]",effect on the level of detectable heme on c4:6×His (holocytochrome c4),[1],neither CoPPIX nor MnPPIX had any affect
same,level of heme on c4:6×His,[2],no decrease
same,level of heme on c4:6×His,[3],no decrease
"C=Cc1c2[n-]c(c1C)/C=c1\[n-]/c(c(C)c1C=C)=C\c1[n-]c(c(CCC(=O)O)c1C)C=c1[n-]/c(c(C)c1CCC(=O)O)=C\2.[Sn+4] [SnPPIX, tin (IV) protoporphyrin IX]",effect on the level of detectable heme on c4:6×His (holocytochrome c4),[1],reduced the level of detectable heme
same,IC50,"[2]; holocytochrome c4:6×His, heme stain, read-out: concentration required for 50% inhibition of system II",~18 µM
same,IC50,"[3]; holocytochrome c4:6×His, heme stain, read-out: concentration required for 50% inhibition of system I",~65 µM
"C=CC1=C(C)c2cc3[n-]c(cc4[n-]c(cc5nc(cc1n2)C(C)=C5C=C)c(C)c4CCC(=O)O)c(CCC(=O)O)c3C.[Zn+2] [ZnPPIX, zinc (II) protoporphyrin IX]",rate or yield of growth,E. coli Δccm,no decrease in the rate or yield of growth
same,level of heme on c4:6×His,"[1]; 25 μM ZnPPIX with 8 μM heme, heme stain",nearly undetectable
same,effect on the level of detectable heme on c4:6×His (holocytochrome c4),[1],decreasing amounts of holocytochrome c4
same,"holocytochrome c4:6×His produced, % of wild type levels",[3]; 8 μM ZnPPIX,approximately 20%
N-methylprotoporphyrin [NMPP],holocytochrome c4:6×His levels,[4]; 60 μM NMPP alone,approximately 54%
same,holocytochrome c4:6×His levels,[4]; 100 μM NMPP alone,approximately 30%
same,amount of holocytochrome c4:His,[5],dramatic reduction
same,NMPP concentration at which holocytochrome c4:His production was completely abolished,[6],less than 20 μM
